Test results taken from PubChem BioAssay AID686942 (Broad Institute, 2013).

test system: V. cholerae SLS353 luxOD47E qrr4-GFP fluorescence; assay: LuxO inhibitors, qrr4 GFP production in absence of autoinducers, V. cholerae, confirmatory (AID 686942)

**Q.** With `COc1ccc2cc3c(NC(=O)c4ccco4)nn(C)c3nc2c1` as the compound, how does the AC50 read?
**A.** 2000 nM

**Q.** How did the AC50 turn out when `Cn1nc(NC(=O)c2ccco2)c2cc3ccccc3nc21` was run?
**A.** 2000 nM

**Q.** For `O=C(Nc1nnc(-c2ccc3c(c2)OCCO3)o1)C1CCCCC1`, which AC50 is on record?
**A.** 2000 nM
